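Method: 48-hour compound exposure of cells in 96-well plates, five concentrations, linear interpolation of endpoints. GI50 marks 50% less growth. At the TGI there is no net growth.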
Columns and labels:
Assay in all cases: inhibition of tumour cell growth, NCI panel, 48 h
[1] = tested on: 786-0 renal
[2] = tested on: ACHN renal
[3] = tested on: NCI/ADR-RES ovarian
[4] = tested on: SK-MEL-28 melanoma
[5] = tested on: SF-268 CNS
[6] = tested on: MOLT-4 leukemia
[7] = tested on: HS 578T breast
[8] = tested on: SK-MEL-2 melanoma
[9] = tested on: T-47D breast
[10] = tested on: EKVX NSCLC

Structure (SMILES) | GI50 [1] | TGI [1] | GI50 [2] | TGI [2] | GI50 [3] | TGI [3] | GI50 [4] | TGI [4] | GI50 [5] | TGI [5] | GI50 [6] | TGI [6] | GI50 [7] | TGI [7] | GI50 [8] | TGI [8] | GI50 [9] | TGI [9] | TGI [10] | GI50 [10]
O=C(CCC(C(=O)c1ccccc1)c1ccccc1)c1ccccc1 (stereo unspecified) | 49.4 µM | > 100 µM | 31.3 µM | > 100 µM | 4.74 µM | > 100 µM | 55.7 µM | > 100 µM | 35.6 µM | > 100 µM | 5.75 µM | > 100 µM | 11.8 µM | > 100 µM | 7.07 µM | 46.7 µM | 7.69 µM | > 100 µM | – | –
O=C(NCC(O)CNC(=O)C(F)(F)F)C(F)(F)F | – | > 100 µM | – | – | – | – | – | – | – | > 100 µM | – | > 100 µM | – | – | – | – | – | – | > 100 µM | –
Nc1c(C(=O)c2ccc(CCCN3CCOCC3)cc2)cnn1-c1ccc(F)cc1 | > 25 µM | > 25 µM | > 25 µM | > 25 µM | > 25 µM | > 25 µM | > 25 µM | > 25 µM | > 25 µM | > 25 µM | > 25 µM | > 25 µM | > 25 µM | > 25 µM | > 25 µM | > 25 µM | 10.3 µM | > 25 µM | – | –
OCC1OC(n2cnc3c(Cl)nc(Cl)cc32)C(O)C1O (stereo unspecified) | > 100 µM | > 100 µM | > 100 µM | > 100 µM | > 100 µM | > 100 µM | > 100 µM | > 100 µM | > 100 µM | > 100 µM | > 100 µM | > 100 µM | 19.7 µM | > 100 µM | – | – | > 100 µM | > 100 µM | > 100 µM | > 100 µM
c1ccc(CN=C(NCc2ccccc2)NCc2ccccc2)cc1 | 11.4 µM | 25.7 µM | 6.03 µM | 21.1 µM | 30.6 µM | > 100 µM | 14.8 µM | 29.2 µM | 4.32 µM | 18.5 µM | 3.77 µM | 19.1 µM | 10.3 µM | 27.3 µM | – | – | 4.7 µM | 17 µM | 7.81 µM | 1.85 µM
COc1ccc2nc3ccccc3c(NCCCN(C)CCCl)c2c1 | – | 1.07 µM | – | 0.695 µM | – | – | – | 2.01 µM | – | 2.75 µM | – | 0.888 µM | – | 3.85 µM | – | 1.81 µM | – | 0.467 µM | 3.15 µM | –
CC(C)(C)OC(=O)NC(CO)c1cccc(OCc2ccccc2)c1 (stereo unspecified) | – | > 100 µM | – | > 100 µM | – | – | – | > 100 µM | – | > 100 µM | – | > 100 µM | – | – | – | > 100 µM | – | – | > 100 µM | –
COc1ccc(OC(C(=O)O)c2ccccc2)c2c1CCCC2=O (stereo unspecified) | – | > 100 µM | – | > 100 µM | – | – | – | > 100 µM | – | > 100 µM | – | > 100 µM | – | – | – | > 100 µM | – | – | > 100 µM | –
CNC(=O)c1cccc2c(Nc3ccc(NS(C)(=O)=O)cc3OC)c3cccc(C)c3nc12 | – | 0.413 µM | – | 0.322 µM | – | 9.36 µM | – | 10.9 µM | – | 8.58 µM | – | 0.0512 µM | – | – | – | 6.37 µM | – | – | 12.1 µM | –
c1ccc2c(c1)[nH]c1c2nc2ncccn21 | – | > 100 µM | – | > 100 µM | – | – | – | > 100 µM | – | > 100 µM | – | > 100 µM | – | – | – | > 100 µM | – | – | > 100 µM | –
C=C(C)[C@@H]1CC[C@]2(CO)CC[C@]3(C)[C@H](CC[C@@H]4[C@@]5(C)CCC(NCCc6ccc(O)cc6)C(C)(C)[C@@H]5CC[C@]43C)[C@@H]12 (stereo partly specified) | 1.66 µM | 3.26 µM | 1.62 µM | 2.97 µM | 1.63 µM | 3.45 µM | 1.58 µM | 3 µM | 1.86 µM | 3.67 µM | 1.38 µM | 3.38 µM | – | – | 1.68 µM | 3.19 µM | 1.51 µM | 3.19 µM | – | –
O=c1oc(=O)c2oc3ccccc3oc1=2 | – | > 100 µM | – | > 100 µM | – | – | – | > 100 µM | – | > 100 µM | – | > 100 µM | – | – | – | > 100 µM | – | – | > 100 µM | –
O=C(NC1C2CC3CC(C2)CC1C3)c1cc(/C=C/c2ccccc2)[nH]c(=S)n1 (stereo unspecified) | – | > 100 µM | – | > 100 µM | – | – | – | > 100 µM | – | > 100 µM | – | > 100 µM | – | – | – | > 100 µM | – | – | > 100 µM | –
O=S(O)CCCSSc1ccccc1 | – | > 100 µM | – | > 100 µM | – | – | – | > 100 µM | – | > 100 µM | – | 70.2 µM | – | – | – | > 100 µM | – | – | 88.1 µM | –
O=C1CC(O)(c2ccccc2)C(c2ccccc2)=C1c1ccccc1 (stereo unspecified) | – | > 100 µM | – | > 100 µM | – | – | – | > 100 µM | – | > 100 µM | – | 81.5 µM | – | – | – | > 100 µM | – | – | > 100 µM | –
COc1ccc(-c2nc(N3CCN(C(=O)C4CCCCC4)CC3)c3c4c(sc3n2)CCCC4)cc1 | 38.2 µM | > 100 µM | 23.9 µM | > 100 µM | > 100 µM | > 100 µM | > 100 µM | > 100 µM | 89 µM | > 100 µM | > 100 µM | > 100 µM | 24.7 µM | > 100 µM | – | – | 20.6 µM | > 100 µM | – | –
CCC[CH2][Sn]1([CH2]CCC)[O]C(=O)c2ccc(C)cc2[O]1 | 1 µM | 2.17 µM | 0.404 µM | 1.42 µM | – | – | 0.412 µM | 1.45 µM | 0.46 µM | 1.46 µM | 0.222 µM | 0.621 µM | – | – | – | – | – | – | 2.23 µM | 0.994 µM
COc1cc(-c2nn(-c3cccc(NC(=O)c4ccc(N5CCOCC5)c(C(F)(F)F)c4)c3)cc2-c2ccncc2)ccc1Cl | 0.561 µM | 2.81 µM | 0.585 µM | > 100 µM | 0.203 µM | > 100 µM | 0.936 µM | > 84.8 µM | 0.559 µM | > 48.1 µM | 0.669 µM | > 100 µM | 0.257 µM | – | 0.21 µM | 2.46 µM | 0.471 µM | > 28.9 µM | – | –
N#CC1=C(N)NC(=S)NC12Nc1ccccc1N2 | 51.7 µM | > 100 µM | – | – | 46.8 µM | > 100 µM | 47.4 µM | > 100 µM | 18.6 µM | > 100 µM | 22.2 µM | > 100 µM | 68.9 µM | > 100 µM | 18.6 µM | > 100 µM | 69.7 µM | > 100 µM | > 100 µM | 65.6 µM

Reference: PubChem BioAssay (NCI)
